Test systems include ACHN renal; NCI-H23 lung; SK-OV-3 ovarian; K-562 leukemia; BT-549 breast; MCF7 breast; NCI/ADR-RES ovarian; SR leukemia; A549 NSCLC; DU-145 prostate.
Common to all, as to assay: NCI anticancer screen, dose series, 48 h

The results in this text go back to PubChem BioAssay (NCI).

Values joined by “and” are separate entries in the source; they are usually repeats but may differ in a detail not shown here. Equal entries are not always repeated.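 How tested: cells in 96-well plates exposed to compound for 48 hours at five concentrations. The concentration for 50% growth inhibition is given as GI50. At the TGI there is no net growth.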

On to `NNC(=O)c1ccc(OCc2nc3ccccc3[nH]2)cc1`, for which the TGI in the test on ACHN renal, in the test with NCI-H23 lung, in the test on SK-OV-3 ovarian, in the test on K-562 leukemia, with BT-549 breast and with MCF7 breast was > 100 µM in each case. Also, the TGI in the test on NCI/ADR-RES ovarian, in the test with SR leukemia, in the test on A549 NSCLC and with DU-145 prostate was > 100 µM throughout.

On to `COc1ccc(C2C=C(c3ccc(Cl)cc3)N=C3SC=C(C)N32)c(Br)c1` (centres undefined), for which the GI50 in the test with ACHN renal is 3.64 µM; in the test with NCI-H23 lung, 4.43 µM; in the test with SK-OV-3 ovarian, 3.57 µM; with K-562 leukemia, 4.02 µM; with BT-549 breast, 3.22 µM; in the test with MCF7 breast it was 2.32 µM. The GI50 was 4.22 µM with NCI/ADR-RES ovarian, 2.06 µM in the test with SR leukemia, 3 µM in the test with A549 NSCLC and 2.68 µM with DU-145 prostate. Besides, the TGI is 17.4 µM with ACHN renal; 28.4 µM with NCI-H23 lung; 12.6 µM in the test on SK-OV-3 ovarian; > 100 µM with K-562 leukemia; 12.4 µM with BT-549 breast; 12.5 µM in the test on MCF7 breast. Besides, the TGI with NCI/ADR-RES ovarian is > 100 µM; in the test with SR leukemia, 14.9 µM; in the test with A549 NSCLC, 24.7 µM; in the test with DU-145 prostate it was 7.26 µM.

Turning to `Cc1cc(Nc2cc(N3CCN(C)CC3)nc(Sc3ccc(NC(=O)C4CC4)cc3)n2)n[nH]1`, the GI50 in the test with ACHN renal was > 10 µM; with NCI-H23 lung, 3.19 µM; in the test on SK-OV-3 ovarian it was > 10 µM; in the test with K-562 leukemia, 0.232 µM; in the test on BT-549 breast, 5.89 µM; in the test with MCF7 breast, 0.492 µM. Further, the GI50 in the test with NCI/ADR-RES ovarian was > 10 µM; with SR leukemia, 0.0594 µM; in the test on A549 NSCLC, 2.18 µM; in the test on DU-145 prostate, > 10 µM. The TGI in the test with ACHN renal, in the test with NCI-H23 lung, in the test on SK-OV-3 ovarian, with K-562 leukemia, in the test on BT-549 breast and with MCF7 breast was > 10 µM in each case. The TGI with NCI/ADR-RES ovarian, with SR leukemia, with A549 NSCLC and with DU-145 prostate was > 10 µM in each case.

For `O=c1cc(-c2ccccc2)oc2cc(OC/C(=N/O)c3ccc(F)cc3)ccc12`, the GI50 in the test on ACHN renal was 19.2 µM; in the test on NCI-H23 lung, 31.8 µM; with SK-OV-3 ovarian it was 47.9 µM; in the test on K-562 leukemia, 27.5 µM; with BT-549 breast, 15.1 µM; with MCF7 breast, 11.9 µM. Also, the GI50 with NCI/ADR-RES ovarian was 21 µM; in the test with SR leukemia it was 23 µM; with A549 NSCLC, 20.1 µM; with DU-145 prostate, 18.1 µM. In addition, the TGI in the test on ACHN renal was > 50 µM; in the test with NCI-H23 lung it was > 50 µM; in the test on SK-OV-3 ovarian, > 50 µM; in the test with K-562 leukemia, > 50 µM; with BT-549 breast, 36.9 µM; with MCF7 breast it was 31 µM. Besides, the TGI in the test on NCI/ADR-RES ovarian, in the test with SR leukemia, with A549 NSCLC and with DU-145 prostate was > 50 µM in each case.

In the case of `CCN1C[C@]2(COC)[C@H](O)C[C@H](OC)[C@]34C1[C@H]([C@H](OC)[C@H]23)[C@]1(OC(C)=O)[C@H]2[C@@H](OC(=O)c3ccccc3)[C@](O)(C[C@H]24)[C@@H](OC)[C@@H]1O`, the TGI in the test with ACHN renal, with NCI-H23 lung, with SK-OV-3 ovarian, in the test on K-562 leukemia, in the test with BT-549 breast and in the test on MCF7 breast was > 100 µM throughout. Moreover, the TGI in the test with NCI/ADR-RES ovarian, in the test with SR leukemia, in the test with A549 NSCLC and in the test with DU-145 prostate was > 100 µM throughout.

With `Cc1cc(Cl)ccc1Nc1nc(C(F)(F)F)ccc1C(=O)N/N=C/c1ccccc1Cl`, the GI50 with ACHN renal is 1.53 µM; in the test with NCI-H23 lung it was 0.775 µM; in the test on SK-OV-3 ovarian it was 0.874 µM; in the test on K-562 leukemia, 0.588 µM; in the test on BT-549 breast, 1.12 µM; in the test on MCF7 breast, 0.896 µM. The GI50 with NCI/ADR-RES ovarian was 1.19 µM; with SR leukemia, 0.188 µM; in the test on A549 NSCLC it was 1.77 µM; in the test with DU-145 prostate, 1.62 µM. Besides, the TGI amounted to 6.86 µM with ACHN renal; 4.89 µM with NCI-H23 lung; 4.95 µM in the test with SK-OV-3 ovarian; 5.75 µM in the test with BT-549 breast; 10.6 µM with MCF7 breast; 7.16 µM with NCI/ADR-RES ovarian. The figures for the TGI in the test on SR leukemia, in the test with A549 NSCLC and in the test on DU-145 prostate were 0.768 µM, 11.6 µM and > 27.6 µM, respectively.

For `COc1cccc(/C(C)=N/NC(=O)CSc2nc3ccccc3c(=O)n2CCc2ccc(S(N)(=O)=O)cc2)c1`, the GI50 is 3.19 µM in the test on ACHN renal; 2.86 µM in the test with NCI-H23 lung; 2.26 µM in the test with SK-OV-3 ovarian; 11.2 µM in the test with K-562 leukemia; 2.27 µM with BT-549 breast; 3.14 µM in the test on MCF7 breast. Besides, the GI50 with NCI/ADR-RES ovarian is 21.3 µM; with SR leukemia, 0.481 µM; with A549 NSCLC, 2.01 µM; in the test on DU-145 prostate, 3.35 µM. For the same compound, the TGI was 15.9 µM in the test on ACHN renal; 8.47 µM in the test with NCI-H23 lung; 4.88 µM in the test on SK-OV-3 ovarian; > 100 µM in the test on K-562 leukemia; 40.9 µM in the test on BT-549 breast; 15.4 µM in the test with MCF7 breast. Moreover, the TGI is > 100 µM in the test on NCI/ADR-RES ovarian, > 100 µM in the test on SR leukemia, 3.93 µM in the test with A549 NSCLC and 10.6 µM in the test with DU-145 prostate.

Turning to `CN1CCN(CCOc2cc(OC3CCOCC3)c3c(Nc4c(Cl)ccc5c4OCO5)ncnc3c2)CC1`, the GI50 in the test with ACHN renal is 0.348 µM and 0.395 µM; in the test with NCI-H23 lung, 12.2 µM and > 10 µM; in the test with SK-OV-3 ovarian, 0.441 µM and 0.345 µM; in the test with K-562 leukemia it was 0.382 µM and 0.47 µM; in the test on BT-549 breast, 15.6 µM and > 10 µM; with MCF7 breast, 4.72 µM and > 10 µM. Moreover, the GI50 was 10.6 µM and 8.91 µM with NCI/ADR-RES ovarian; 9.63 µM and 5.98 µM in the test on SR leukemia; 5.27 µM and 3.26 µM with A549 NSCLC; 3.72 µM and 7.29 µM in the test on DU-145 prostate. The TGI was 14 µM and > 10 µM in the test on ACHN renal; 57.1 µM and > 10 µM in the test with NCI-H23 lung; 13.2 µM and > 10 µM in the test on SK-OV-3 ovarian; 9.24 µM and > 10 µM with K-562 leukemia; 30.7 µM and > 10 µM with BT-549 breast; 27.4 µM and > 10 µM with MCF7 breast. In addition, the TGI in the test with NCI/ADR-RES ovarian is 56.8 µM and > 10 µM; in the test with SR leukemia, 37.4 µM and > 10 µM; with A549 NSCLC, 25.9 µM and > 10 µM; with DU-145 prostate, 39.7 µM and > 10 µM.
